From ChEMBL document CHEMBL4814061, “Novel Azaquinolones as PARP1 Inhibitors for Treating Cancer” (ACS Med Chem Lett, 2021)

biological target: Poly [ADP-ribose] polymerase 1 (Homo sapiens, UniProt P09874); assay: Inhibition of recombinant full length 6His-tagged PARP1 (unknown origin) incubated for 4 hrs by fluorescence anisotropy assay
Sequence (P09874 whole entry): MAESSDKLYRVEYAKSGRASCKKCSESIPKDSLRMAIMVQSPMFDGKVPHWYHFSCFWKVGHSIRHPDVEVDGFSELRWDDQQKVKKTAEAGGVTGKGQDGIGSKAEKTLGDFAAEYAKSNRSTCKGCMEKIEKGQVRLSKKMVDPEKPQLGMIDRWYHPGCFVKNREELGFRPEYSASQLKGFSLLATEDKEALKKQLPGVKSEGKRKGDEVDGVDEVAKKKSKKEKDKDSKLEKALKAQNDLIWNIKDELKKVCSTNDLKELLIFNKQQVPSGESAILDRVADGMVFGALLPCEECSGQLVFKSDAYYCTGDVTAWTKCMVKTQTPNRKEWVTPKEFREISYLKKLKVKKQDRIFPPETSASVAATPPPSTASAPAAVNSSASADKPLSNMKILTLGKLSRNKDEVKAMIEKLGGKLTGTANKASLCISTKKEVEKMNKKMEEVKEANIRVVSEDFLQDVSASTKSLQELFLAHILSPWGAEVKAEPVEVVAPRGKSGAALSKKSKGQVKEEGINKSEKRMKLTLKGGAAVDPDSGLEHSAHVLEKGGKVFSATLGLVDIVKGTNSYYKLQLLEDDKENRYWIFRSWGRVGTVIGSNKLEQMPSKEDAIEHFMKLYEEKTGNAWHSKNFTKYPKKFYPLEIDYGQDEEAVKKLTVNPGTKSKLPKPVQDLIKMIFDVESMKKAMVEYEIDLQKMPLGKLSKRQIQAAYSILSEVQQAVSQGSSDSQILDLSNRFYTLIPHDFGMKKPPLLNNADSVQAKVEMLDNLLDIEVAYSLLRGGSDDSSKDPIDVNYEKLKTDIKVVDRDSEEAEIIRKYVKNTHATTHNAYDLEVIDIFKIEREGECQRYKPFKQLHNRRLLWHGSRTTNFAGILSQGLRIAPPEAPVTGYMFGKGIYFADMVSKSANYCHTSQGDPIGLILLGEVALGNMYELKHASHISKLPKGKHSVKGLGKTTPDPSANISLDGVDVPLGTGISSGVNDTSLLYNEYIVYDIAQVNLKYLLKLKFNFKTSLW

| Compound | IC50 [nM] |
| --- | --- |
| CNC(=O)c1ccc(N2CCN(Cc3cc4[nH]c(=O)c(CCF)cc4cn3)CC2)cn1 | 2 |
| CCc1cc2cnc(CN3CCN(c4ccc(C(=O)NC)nc4Cl)CC3)cc2[nH]c1=O | 3 |
| CCc1cc2cnc(CN3CCN(c4ccc(C(N)=O)nc4)CC3)cc2[nH]c1=O | 2 |
| CNC(=O)c1ccc(N2CCN(Cc3cc4[nH]c(=O)c(CC(F)F)cc4cn3)CC2)c(F)n1 | 3 |
| CCc1cc2cnc(CN3CCN(c4ccc(C(=O)NC)nc4F)CC3)cc2[nH]c1=O | 2 |
